We go through one compound from US20130337579A1, “Methods for Determining Protein Ligand Binding” (UNIVERSITY OF MARYLAND, COLLEGE PARK, priority 2010, published 2013).

SMILES strings stand for the structures.

In assay [1] the target is Vc2* riboswitch RNA. Put plainly: Electrophoretic mobility shift assay (EMSA) of cdiGMP binding to Vc2* RNA. To be noted: read-out: Kd (apparent affinity). From the text: We have shown that protein interaction with DNA can be detected by DRaCALA. We wondered if the principle of DRaCALA would also apply to ribonucleic acids. In particular, can the DRaCALA technology be used to detect the interaction of riboswitches with their small molecule ligands. One example of such an interaction that has been of recent interest is the cdiGMP responsive Vc2 riboswitch identified in bacteria. To study such an interaction with DRaCALA, one of the binding partners must be immobilized. […] The biotinylated riboswitch was sequestered by streptavidin, allowing the nucleic acid to take the place of protein as the immobile partner in the binding assay. Vc2* was tested directly for sequestration of cdiGMP and also biotinylated and tested for binding to cdiGMP in the presence or absence of streptavidin. The 4 nM radiolabelled cdiGMP was mobile alone and in the presence of the Vc2* or biotinylated Vc2* RNA (FIG. 19A, lanes 1-3). […] Biotinylated Vc2* RNA and bound cdiGMP was immobilized by streptavidin as expected (lane 6). […]
Gel shift assays were performed using 8% acrylamide gels with 100 mM Tris/HEPES, pH=7.5, 10 mM MgCl2, and 0.1 mM EDTA in the gel and running buffer. […] Gels were imaged with a phosphorimager and fraction bound quantified with Fuji Image Guage software. […]

Assay [2] has as its target T1, Alg44PilZ (Pseudomonas aeruginosa, UniProt Q9HY69).
T1 construct: Previous studies of the dissociation rate of cdiGMP from Alg44PilZ
The conditions noted are these: estimated by filter binding, previous studies; cited from earlier work.

The target of assay [3] is T2, P. aeruginosa Alg44PilZ (His-MBP-Alg44PilZ) (Pseudomonas aeruginosa, UniProt Q9HY69).
T2 construct: His-MBP-Alg44PilZ was varied from 100 μM to 6 nM; made in house; host or cells: E. coli BL21(DE3)
The assay can be described thus: biochemical. In kind it is binding. From the text:
DRaCALA exploits the ability of nitrocellulose membranes to preferentially sequester proteins over small molecule ligands. When a mixture of protein and radiolabeled ligand is spotted onto a dry nitrocellulose membrane, protein and bound ligand are immobilized at the site of contact while free ligand is mobilized by capillary action with the liquid phase (FIG. 1A). DRaCALA is a rapid assay, as the capillary action can be completed in less than 5 seconds. […] Because capillary action distributes the unbound ligand throughout the mobile phase, the calculation for the fraction bound (FB) can be corrected for this background (see below for edge effects at the solvent front and annulation of the protein). Therefore, FB is defined by the equation in FIG. 1B, where Iinner is the intensity of signal in the area with protein (inner circle) and Itotal is the total signal of the entire sample (outer circle). The Iinner signal consists of both ligand bound to protein and unbound ligand that has not mobilized beyond the area of the inner circle, which we define as Ibackground. Ibackground can be calculated by subtracting the signal intensity of the Iinner from the total ligand Itotal and adjusting for the relative areas of the inner (Ainner) and outer circles (Atotal) (FIG. 1B).
(§1) Radiolabeled ligands were incubated with each of the proteins and the mixtures were spotted on nitrocellulose. After spreading by capillary action, membranes were dried and quantitated by phosphorimager. […] The specificity of Alg44PilZ binding to cdiGMP was further tested by competition with excess unlabeled nucleotides (400-fold molar excess relative to the Alg44PilZ protein).
Kd can be measured by altering either the protein or ligand concentrations in titration experiments; since DRaCALA detects only the ligand mobility, ligand concentrations can be always held constant. […] Since the assay is completed in less than 5 seconds, DRaCALA can also be used to determine the koff for those protein-ligand complexes with slower off rates. koff was determined for cdiGMP and Alg44PilZ by spotting at the indicated time points after the addition of 1 mM unlabeled cdiGMP to a pre-incubated mixture of Alg44PilZ and ^32P-cdiGMP (FIG. 3C). […] Both edge and annulation effects are explained in FIG. 8. The edge effect is due to evaporation of the solvent during the time of the experiment, and is dependent on the humidity of the local environment around the nitrocellulose support. The evaporation results in a smaller total area (Atotal observed in FIG. 8A) and leads to an increased value in the calculated Ibackground. As a secondary correction for the edge effect, the fraction bound determined for spotted ligand in the absence of protein can be subtracted from all samples in parallel (FIG. 8B).

Assay [4] concerns the target Maltose binding protein (MBP) (Escherichia coli, UniProt P0AEX9). The conditions noted are these: whole-cell lysate, 8 nM 32P-cdiGMP. The method, then:
as §1

For assay [5], the target named is T1, Alg44PilZ. The conditions noted are these: previously determined by ITC (Merighi 2007); cited from earlier work.
The test system of assay [6] is whole-cell lysates of P. aeruginosa strains. The assay can be described thus: DRaCALA analysis of cdiGMP binding by whole-cell lysates of P. aeruginosa strains.
Assay [7] addresses Vc2* riboswitch RNA. Put plainly: DRaCALA of cdiGMP binding to biotinylated Vc2* RNA immobilized by streptavidin. The conditions noted are these: Vc2*-biotin RNA diluted, 4 nM 32P-cdiGMP. The method, then: FIG. 19. Vc2* RNA binding to ^32P-cdiGMP is detected by DRaCALA. (A) Spots visualized by phosphorimager with streptavidin used to immobilize biotinylated RNA. The binding reaction contained 4 nM ^32P-cdiGMP, 1 μM RNA, and 200 nM streptavidin in buffer (10 mM KCl, 10 mM sodium cacodylate, 3 mM MgCl2). (B) The affinity of Vc2*-biotin RNA for cdiGMP was determined with both EMSA and DRaCALA by diluting RNA in the binding reaction. The fraction bound is normalized such that 1.0 represents maximal binding.
We have shown that protein interaction with DNA can be detected by DRaCALA. We wondered if the principle of DRaCALA would also apply to ribonucleic acids. In particular, can the DRaCALA technology be used to detect the interaction of riboswitches with their small molecule ligands. One example of such an interaction that has been of recent interest is the cdiGMP responsive Vc2 riboswitch identified in bacteria. To study such an interaction with DRaCALA, one of the binding partners must be immobilized. […] The biotinylated riboswitch was sequestered by streptavidin, allowing the nucleic acid to take the place of protein as the immobile partner in the binding assay. Vc2* was tested directly for sequestration of cdiGMP and also biotinylated and tested for binding to cdiGMP in the presence or absence of streptavidin. […]

T2 sequence (Q9HY69 16-116): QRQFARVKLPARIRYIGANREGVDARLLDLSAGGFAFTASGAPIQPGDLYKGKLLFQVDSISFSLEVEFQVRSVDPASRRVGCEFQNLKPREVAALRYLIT
T1 sequence (Q9HY69 16-116): as above

In the case of `Nc1nc2c(ncn2[C@@H]2O[C@@H]3CO[P@](=O)(O)O[C@H]4[C@@H](O)[C@H](n5cnc6c(=O)[nH]c(N)nc65)O[C@@H]4CO[P@](=O)(O)O[C@H]3[C@H]2O)c(=O)[nH]1` [cdiGMP, cyclic-di-GMP], the Kd in assay [1] is 9.8 nM; in assay [3], 1600 nM; in assay [5], 5600 nM; in assay [7], 7.8 nM. Further, the “half-life of the complex” value in assay [2] is 5 min. In addition, in assay [3], the koff was determined as 0.017 ± 0.002 s⁻¹. The “binding to Alg44PilZ (sequestration of radiolabel signal)” value in assay [3] (20 μM purified protein, 500 nM 14C-cAMP, 4 nM 32P-ATP or 4 nM 32P-cdiGMP) was “bound”. Also, in assay [3] (1 mM unlabeled cdiGMP), the “time until 32P-cdiGMP binding completely competed away” value was at most 90 s. In addition, the “half-life (t1/2)” value in assay [3] (corresponding to koff, DRaCALA) was 0.593 ± 0.178 min. Also, the “binding by protein extracts from E. coli expressing MBP alone” value in assay [4] is “did not bind”. In addition, the BSp in assay [6] (PA14 overexpressing diguanylate cyclase WspR) is reported as 1.19; in assay [6] (PA14 overexpressing phosphodiesterase RocR) it was 3.51; in assay [6] (PA14ΔpelD overexpressing RocR) it was 2.70; in assay [6] (wild-type PA14 extract), 1.27. Moreover, the “average BSp of strain groups isolated from different sources” value in assay [6] (all groups) was “greater than 1.48”. The “Average Bc” value in assay [6] (average over all P. aeruginosa lysates of the table) was 0.185.
